According to patent publication US20260028354A1, “TETRAHYDRONAPHTHALENE DERIVATIVES AS ESTROGEN RECEPTOR DEGRADERS” (REGENT OF THE UNIVERSITY OF MICHIGAN, priority 2022, published 2026):
Where two headings read alike, the source gives them in different places.

Experiments:
[1] = biological target: ER in MCF-7 cells (Homo sapiens (Human), UniProt P03372); experiment: In-cell Western (ICW) ER degradation assay in MCF-7 cells; format: cell-based; conditions: for DC50: MCF-7, ER degradation, read-out: MCF7 DC50; for MCF7 Dmax: MCF-7, maximal ER degradation
Sequence of ER in MCF-7 cells (P03372 whole entry): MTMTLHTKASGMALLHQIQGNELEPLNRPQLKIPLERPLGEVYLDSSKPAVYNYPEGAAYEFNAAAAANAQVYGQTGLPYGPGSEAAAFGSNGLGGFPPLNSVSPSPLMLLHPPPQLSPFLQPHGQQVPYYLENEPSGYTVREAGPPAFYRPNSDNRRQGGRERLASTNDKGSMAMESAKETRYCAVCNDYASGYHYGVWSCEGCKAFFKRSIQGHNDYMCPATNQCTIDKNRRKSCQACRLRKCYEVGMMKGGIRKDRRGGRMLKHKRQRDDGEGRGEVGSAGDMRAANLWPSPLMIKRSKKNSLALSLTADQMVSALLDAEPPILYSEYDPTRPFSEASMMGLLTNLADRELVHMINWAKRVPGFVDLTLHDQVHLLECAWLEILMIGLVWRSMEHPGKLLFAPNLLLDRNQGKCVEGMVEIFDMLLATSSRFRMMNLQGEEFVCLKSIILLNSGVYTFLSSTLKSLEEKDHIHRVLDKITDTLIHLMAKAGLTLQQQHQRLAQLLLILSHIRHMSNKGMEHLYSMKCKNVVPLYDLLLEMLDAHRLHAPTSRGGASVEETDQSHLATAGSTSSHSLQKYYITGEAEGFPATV

[2] = biological target: CRBN/DDB1 (Homo sapiens (Human), UniProt Q96SW2); format: binding; conditions: His tagged CRBN+DDB1, Cy5-labeled Thalidomide probe, one hour; read-out: CRBN HTRF IC50
Sequence of CRBN/DDB1 (Q96SW2 whole entry, species assumed): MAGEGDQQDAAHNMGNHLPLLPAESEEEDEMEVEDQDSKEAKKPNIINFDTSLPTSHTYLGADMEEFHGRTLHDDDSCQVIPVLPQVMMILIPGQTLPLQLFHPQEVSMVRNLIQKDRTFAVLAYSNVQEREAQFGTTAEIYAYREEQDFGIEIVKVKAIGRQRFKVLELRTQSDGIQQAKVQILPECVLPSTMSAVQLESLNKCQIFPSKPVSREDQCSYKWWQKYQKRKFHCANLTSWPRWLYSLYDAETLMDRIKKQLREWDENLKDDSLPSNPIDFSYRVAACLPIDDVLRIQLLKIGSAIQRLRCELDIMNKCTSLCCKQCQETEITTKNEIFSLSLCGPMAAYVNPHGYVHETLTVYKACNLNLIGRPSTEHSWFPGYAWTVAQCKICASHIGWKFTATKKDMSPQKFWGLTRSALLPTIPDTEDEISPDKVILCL
Sequence of CRBN/DDB1 (Q16531 whole entry partner, species assumed): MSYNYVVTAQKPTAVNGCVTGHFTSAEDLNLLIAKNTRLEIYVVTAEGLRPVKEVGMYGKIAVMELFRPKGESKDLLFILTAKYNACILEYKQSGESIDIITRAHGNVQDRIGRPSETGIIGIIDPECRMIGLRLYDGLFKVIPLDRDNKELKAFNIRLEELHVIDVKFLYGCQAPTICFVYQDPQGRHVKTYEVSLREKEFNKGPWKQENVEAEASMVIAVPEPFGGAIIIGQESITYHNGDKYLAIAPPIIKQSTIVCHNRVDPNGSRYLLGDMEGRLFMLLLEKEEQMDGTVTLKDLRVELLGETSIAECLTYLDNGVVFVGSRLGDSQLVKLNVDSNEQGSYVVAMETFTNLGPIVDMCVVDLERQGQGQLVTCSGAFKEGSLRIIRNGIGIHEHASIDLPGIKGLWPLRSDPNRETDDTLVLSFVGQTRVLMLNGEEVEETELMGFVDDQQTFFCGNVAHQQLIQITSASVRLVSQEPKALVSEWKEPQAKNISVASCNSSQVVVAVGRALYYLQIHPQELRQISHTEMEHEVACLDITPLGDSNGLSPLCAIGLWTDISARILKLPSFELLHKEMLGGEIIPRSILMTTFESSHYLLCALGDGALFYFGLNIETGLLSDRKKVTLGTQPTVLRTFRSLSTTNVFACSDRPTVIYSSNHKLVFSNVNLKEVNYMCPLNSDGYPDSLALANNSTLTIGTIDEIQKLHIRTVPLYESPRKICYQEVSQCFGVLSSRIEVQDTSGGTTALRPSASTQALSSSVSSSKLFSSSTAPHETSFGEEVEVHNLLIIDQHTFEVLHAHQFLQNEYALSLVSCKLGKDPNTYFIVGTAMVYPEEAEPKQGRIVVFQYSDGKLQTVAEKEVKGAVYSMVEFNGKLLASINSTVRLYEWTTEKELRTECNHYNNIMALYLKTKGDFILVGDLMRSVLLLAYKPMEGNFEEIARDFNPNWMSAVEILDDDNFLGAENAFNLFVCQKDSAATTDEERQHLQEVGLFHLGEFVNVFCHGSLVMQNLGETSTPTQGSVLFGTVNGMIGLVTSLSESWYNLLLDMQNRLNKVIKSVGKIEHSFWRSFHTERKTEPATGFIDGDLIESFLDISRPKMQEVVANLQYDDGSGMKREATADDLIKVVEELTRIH
Method: The binding potency was determined using HTRF assay technology (Perkin Elmer). Compounds were serially diluted in DMSO and […] volume was transferred to white 384-well plate.

[3] = biological target: ER in T47D cells (Homo sapiens (Human), UniProt P03372); experiment: In-cell Western (ICW) ER degradation assay in T47D cells; format: cell-based; conditions: for DC50: ER degradation
Sequence of ER in T47D cells (P03372 whole entry): as the sequence (P03372 whole entry) above

[4] = MCF7, MCF-7, maximal ER degradation, 16 hrs treatment, read-out: MCF7 Dmax
[5] = maximal ER degradation, 16 hrs treatment, read-out: T47D Dmax
[6] = MCF7, read-out: MCF7 Dmax, MCF-7, maximal ER degradation, 16 hrs treatment
[7] = read-out: T47D Dmax, T47D, maximal ER degradation, 16 hrs treatment

| T47D Dmax ([3]; maximal ER degradation, 16 hrs treatment) | Compound | Dmax [1, 4] | DC50 ([1]; 16 hrs treatment) | IC50 [2] | DC50 ([3]; 16 hrs treatment) | Dmax [3, 5] | Dmax [1, 6] | Dmax [3, 7] | MCF7 Dmax ([1]; 16 hrs treatment) |
| --- | --- | --- | --- | --- | --- | --- | --- | --- | --- |
|  | O=C1CC[C@@H](Nc2ccc(C3CCN(C[C@@H]4COC5(CCN(c6ccc([C@@H]7c8ccc(O)cc8CC[C@@H]7c7ccccc7)cc6)CC5)C4)CC3)c(F)c2)C(=O)N1 (single isomer, unassigned) [Compound A62] | 25 to 50% | 10 to 100 nM | 50 to 500 nM | 1 to 10 nM | 25 to 50% |  |  |  |
|  | O=C1CC[C@H](Nc2ccc(C3CCN(C[C@H]4COC5(CCN(c6ccc([C@H]7c8ccc(O)cc8CC[C@H]7c7ccccc7)cc6)CC5)C4)CC3)cc2)C(=O)N1 (single isomer, unassigned) [Compound A49] | 50 to 75% | < 1 nM | 50 to 500 nM | < 1 nM | 50 to 75% |  |  |  |
|  | O=C1CC[C@H](N2Cc3cc4c(cc3C2=O)OC[C@H]2CN(C[C@@H]3COC5(CCN(c6ccc([C@H]7c8ccc(O)cc8CC[C@H]7c7ccccc7)cc6)CC5)C3)CCN42)C(=O)N1 [Compound A20, (S)-3-((R)-3-(((R)-8-(4-((1S, 2R)-6-hydroxy-2-phenyl-1,2,3,4-tetrahydronaphthalen-1-yl)phenyl)-1-oxa-8-azaspiro [4.5]decan-3-yl)methyl)-8-oxo-1,2,3,4,4a,5,8,10-oCtahydro-9H-pyrazino[1′,2′:4,5][1,4]oxazino[2,3-f]isoindol-9-yl)-piperidine-2,6-dione] | 50 to 75% | < 1 nM | 50 to 500 nM | < 1 nM | 50 to 75% |  |  |  |
|  | O=C1CC[C@H](Nc2ccc(C3CCN(C[C@H]4COC5(CCN(c6ccc([C@@H]7c8ccc(O)cc8CC[C@@H]7c7ccccc7)cc6)CC5)C4)CC3)cc2)C(=O)N1 (single isomer, unassigned) [Compound A27] | 25 to 50% | 10 to 100 nM | 50 to 500 nM | > 100 nM | < 25% |  |  |  |
|  | O=C1CC[C@H](Nc2ccc(C3CCN(C[C@@H]4COC5(CCN(c6ccc([C@@H]7c8ccc(O)cc8CC[C@@H]7c7ccccc7)cc6)CC5)C4)CC3)cc2)C(=O)N1 (single isomer, unassigned) [Compound A28] | 25 to 50% | 10 to 100 nM | 50 to 500 nM | 10 to 100 nM | 25 to 50% |  |  |  |
|  | COc1cc(N2CCC3(CC2)CC(CN2CCC4(CC2)COc2c4ccc4c2CN([C@H]2CCC(=O)NC2=O)C4=O)CO3)ccc1[C@@H]1c2ccc(O)cc2CC[C@@H]1c1ccccc1 (stereo partly drawn) [Compound A55, (3S)-3-(1′-((8-(4-((1S,2S)-6-hydroxy-2-phenyl-1,2,3,4-tetrahydronaphthalen-1-yl)-3-methoxyphenyl)-1-oxa-8-azaspiro[4.5]decan-3-yl)meth-yl)-6-oxo-6,8-dihydro-2H,7H-spiro[furo[2,3-e]isoindole-3,4′-piperidin]-7-yl)piperidine-2,6-dione] |  | 10 to 100 nM | < 50 nM | 1 to 10 nM |  | 25 to 50% | 50 to 75% |  |
|  | O=C1CC[C@H](NC(=O)c2ccc3c(n2)OC[C@H]2CN(C[C@@H]4COC5(CCN(c6ccc([C@@H]7c8ccc(O)cc8CC[C@@H]7c7ccccc7)cc6)CC5)C4)CCN32)C(=O)N1 (single isomer, unassigned) [Compound A14] | 50 to 75% | < 1 nM | 500 to 5000 nM | < 1 nM | 50 to 75% |  |  |  |
|  | COc1cc(N2CCC3(CC2)CC(CN2CCN4c5ccc(C(=O)N[C@H]6CCC(=O)NC6=O)nc5OC[C@H]4C2)C3)c(F)cc1[C@@H]1c2ccc(O)cc2CC[C@@H]1c1ccccc1 [Compound A111, (R)-N-((S)-2,6-dioxopiperidin-3-yl)-3-((7-(2-fluoro-4-((1S,2S)-6-hydroxy-2-phenyl-1,2,3,4-tetrahydronaphthalen-1-yl)-5-methoxyphenyl)-7-azaspiro[3.5]nonan-2-yl)methyl)-1,2,3,4,4a,5-hexahydropyrazino[1,2-d]pyrido[2,3-b][1,4]oxazine-8-carboxamide] | 50 to 75% | 1 to 10 nM | > 5000 nM | 1 to 10 nM | > 75% |  |  |  |
| B (“B”: >50 and <75%) | COc1cc(N2CCC3(CC2)CC(CN2CCC(c4ccc(NC5CCC(=O)NC5=O)cc4F)CC2)C3)ccc1[C@@H]1c2ccc(O)cc2CC[C@@H]1c1ccccc1 (stereo in doubt) [Compound A106, (R)-3-((3-fluoro-4-(1-((7-(4-((1S,2S)-6-hydroxy-2-phenyl-1,2,3,4-tetrahydronaphthalen-1-yl)-3-methoxyphenyl)-7-aza-spiro[3.5]nonan-2-yl)methyl)-piperidin-4-yl)phenyl)amino)-piperidine-2,6-dione] |  | < 1 nM | 50 to 500 nM | < 1 nM |  |  |  | B (“B”: >50 and <75%) |
|  | O=C1CC[C@@H](Nc2ccc([C@@]34CCN(CC5CC6(CCN(c7ccc([C@@H]8c9ccc(O)cc9CC[C@@H]8c8ccccc8)cc7)CC6)C5)C[C@@H]3C4(F)F)cc2)C(=O)N1 [Compound A67, (R)-3-((4-((1R,6R)-7,7-difluoro-3-((7-(4-((1R,2S)-6-hydroxy-2-phenyl-1,2,3,4-tetrahydronaphthalen-1-yl)-phenyl)-7-azaspiro[3.5]nonan-2-yl)methyl)-3-azabicyclo [4.1.0]heptan-6-yl)phenyl)-amino)piperidine-2,6-dione] |  | 1 to 10 nM | > 5000 nM | 1 to 10 nM |  | 50 to 75% | 50 to 75% |  |
|  | COc1cc(C(=O)NC2CCC(=O)NC2=O)ncc1N1CCN(CC2CCN(c3ccc([C@@H]4c5ccc(O)cc5CC[C@@H]4c4ccccc4)cc3)CC2)CC1 (stereo partly drawn) [Compound A5, N-(2,6-dioxopiperidin-3-yl)-5-(4-((1-(4-((1R,2S)-6-hydroxy-2-phenyl-1,2,3,4-tetrahydro-naphthalen-1-yl)phenyl)piper-idin-4-yl)methyl)piperazin-1-yl)-4-methoxypicolinamide] | 50 to 75% | < 1 nM | > 5000 nM | < 1 nM | 25 to 50% |  |  |  |
|  | COc1cc(N2CC3(CC(CN4CCN5c6ccc7c(c6OC[C@H]5C4)CN([C@H]4CCC(=O)NC4=O)C7=O)CO3)C2)ccc1[C@H]1c2ccc(O)cc2CC[C@H]1c1ccccc1 (single isomer, unassigned) [Compound A47] | 50 to 75% | 10 to 100 nM | 50 to 500 nM | 1 to 10 nM | 25 to 50% |  |  |  |
|  | O=C1CC[C@H](N2Cc3cc4c(cc3C2=O)OC[C@@H]2CN(CC3CCC5(CC3)CN(c3ccc([C@@H]6c7ccc(O)cc7CC[C@@H]6c6ccccc6)cn3)C5)CCN42)C(=O)N1 [Compound A124, (S)-3-((S)-3-((2-(5-((1S,2S)-6-hydroxy-2-phenyl-1,2,3,4-tetrahydronaphthalen-1-yl)pyridin-2-yl)-2-azaspiro[3.5]nonan-7-yl)methyl)-8-oxo-1,2,3,4,4a,5,8,10-octahydro-9H-pyrazino[1′,2′: 4,5][1,4]oxazino[2,3-f]isoindol-9-yl)piperidine-2,6-dione] |  | 10 to 100 nM | 500 to 5000 nM | 10 to 100 nM | 50 to 75% |  |  | B (“B”: >50 and <75%) |
